Assay results taken from US11046716B2, “Beta-lactamase inhibitors” (priority 2015, dated 2021).

Assays:
[1] = system: K. pneumoniae expressing the Class A carbapenemase KPC-2; experiment: Broth microdilution MIC assay with meropenem, K. pneumoniae KPC-2; format: cell-based; conditions: Fixed Mero (meropenem) 4 μg/mL; K. p. 156319 KPC-3
In short: (§1)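 Test compound was titrated 2-fold from 16 to 0.125 μg/mL in cation-adjusted Mueller Hinton broth against a fixed 4 μg/ml β-lactam overlay. Plates were inoculated per CLSI broth microdilution, incubated 16-20 hours at 37° C, and the MIC of the test compound was read visually.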

OXA-48 = OXA-48 (UniProt Q6XEC0); experiment: β-lactamase enzyme inhibition assay, Class D oxacillinase; format: biochemical; conditions: read-out: OXA-48
AmpC = target: T1, AmpC (Enterobacter cloacae, UniProt P05364); experiment: β-lactamase enzyme inhibition assay, p99 AmpC (nitrocefin substrate); format: biochemical
T1 construct: made in house; host or cells: E. coli BL21(DE3)
T1 sequence (P05364 21-381): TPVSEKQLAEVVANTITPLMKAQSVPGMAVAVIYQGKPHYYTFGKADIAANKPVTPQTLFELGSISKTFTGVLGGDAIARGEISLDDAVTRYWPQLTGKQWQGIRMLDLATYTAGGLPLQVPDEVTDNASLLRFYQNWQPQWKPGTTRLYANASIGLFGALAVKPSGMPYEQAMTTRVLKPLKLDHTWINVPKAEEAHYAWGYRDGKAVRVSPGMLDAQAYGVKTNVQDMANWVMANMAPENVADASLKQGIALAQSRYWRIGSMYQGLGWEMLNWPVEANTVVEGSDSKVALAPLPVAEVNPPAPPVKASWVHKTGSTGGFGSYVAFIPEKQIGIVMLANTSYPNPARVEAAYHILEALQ
In short: (§2)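 Read-out is the rate of β-lactam ring hydrolysis monitored by absorbance. Recombinant native enzymes were first incubated with compound at 37 °C for 15 min. The IC50 is the inhibitor concentration that halves the initial hydrolysis rate.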

SHV-5 = target: T2, SHV-5 (Klebsiella pneumoniae, UniProt P0A3M1); experiment: β-lactamase enzyme inhibition assay, SHV-5 (cefotaxime substrate); format: biochemical
T2 construct: made in house; host or cells: E. coli BL21(DE3)
T2 sequence (P0A3M1 22-286): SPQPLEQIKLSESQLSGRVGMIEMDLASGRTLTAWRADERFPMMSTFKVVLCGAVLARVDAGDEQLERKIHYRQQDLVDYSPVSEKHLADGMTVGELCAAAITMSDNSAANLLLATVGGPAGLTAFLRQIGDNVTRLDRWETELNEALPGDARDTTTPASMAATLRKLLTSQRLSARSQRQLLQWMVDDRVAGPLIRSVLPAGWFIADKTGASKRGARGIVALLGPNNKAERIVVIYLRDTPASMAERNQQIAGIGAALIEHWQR
In short: as §2, with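 “absorbance: 300 nm for imipenem with KPC-2 and 260 nm for cefotaxime with SHV-5.” for “absorbance.”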

KPC-2 = target: T3, KPC-2 (Klebsiella pneumoniae, UniProt Q9F663); experiment: β-lactamase enzyme inhibition assay, KPC-2 (imipenem substrate); format: biochemical; conditions: Class A; imipenem substrate, 300 nm; read-out: KPC-2
T3 construct: made in house; host or cells: E. coli BL21(DE3)
T3 sequence (Q9F663 25-293, looked up): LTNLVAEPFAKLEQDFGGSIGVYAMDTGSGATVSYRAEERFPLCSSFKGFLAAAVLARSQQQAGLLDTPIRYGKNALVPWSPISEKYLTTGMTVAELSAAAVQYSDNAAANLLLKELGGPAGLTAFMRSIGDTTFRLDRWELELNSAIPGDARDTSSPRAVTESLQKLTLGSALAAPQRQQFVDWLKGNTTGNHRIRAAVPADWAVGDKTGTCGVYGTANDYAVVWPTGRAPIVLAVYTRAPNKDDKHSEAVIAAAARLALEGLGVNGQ
In short: as §2, with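 “absorbance: 300 nm for imipenem with KPC-2 and 260 nm for cefotaxime with SHV-5.” for “absorbance.”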

[2] = system: K. pneumoniae producing the Class D carbapenemase OXA-48; experiment: Broth microdilution MIC assay with meropenem, K. pneumoniae OXA-48; format: cell-based; conditions: Fixed Mero (meropenem) 4 μg/mL; K. p. 11978 OXA-48
In short: as §1

[3] = system: P. aeruginosa expressing the Class B carbapenemase VIM-2; experiment: Broth microdilution MIC assay with meropenem, P. aeruginosa VIM-2; format: cell-based; conditions: Fixed Mero (meropenem) 4 μg/mL; P. aerug. 2775 VIM-2
In short: as §1

[4] = system: K. pneumoniae expressing the class A carbapenemase KPC-2 and the class B carbapenemase VIM-4; experiment: Broth microdilution MIC assay with meropenem, K. pneumoniae KPC-2 and VIM-4; format: cell-based; conditions: Fixed Mero (meropenem) 4 μg/mL; K. p. A-1797 KPC-2 VIM-4
In short: as §1

[5] = system: E. coli expressing the Class A Extended Spectrum Beta-Lactamase (ESBL) CTX-M-15; experiment: Broth microdilution MIC assay with ceftazidime, E. coli CTX-M-15; format: cell-based; conditions: Fixed CAZ (ceftazidime) 4 μg/mL; E. coli ESBL4 CTX-M-15
In short: as §1

VIM-2 = target: T4, VIM-2 (Escherichia coli, UniProt Q5U7L7); experiment: β-lactamase enzyme inhibition assay, VIM-2 (nitrocefin substrate); format: biochemical; conditions: Class B; nitrocefin substrate, 486 nm; read-out: VIM-2
T4 construct: made in house; host or cells: E. coli BL21(DE3)
In short: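 Purified VIM-2 (Q sepharose anion exchange, Hepes pH 7.5, >90% pure) was preincubated with inhibitor at 37 °C for 15 min, then nitrocefin added at 100 μM final. Absorbance at 486 nm was followed for 10 min; IC50 was taken from maximum hydrolysis rates relative to inhibitor-free controls.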

[6] = system: E. cloacae expressing the Class C P99; experiment: Broth microdilution MIC assay with ceftazidime, E. cloacae P99; format: cell-based; conditions: Fixed CAZ (ceftazidime) 4 μg/mL; E. cl. 144200 p99 AmpC
In short: as §1

SMILES	MIC (μg/mL) of Exemplary Compounds in presence of fixed β-lactams: K. p. 156319 KPC-3 [1]	IC50 (OXA-48) [nM]	IC50 (AmpC) [nM]	IC50 (SHV-5) [nM]	IC50 (KPC-2) [nM]	MIC (μg/mL) of Exemplary Compounds in presence of fixed β-lactams: K. p. 11978 OXA-48 [2]	MIC (μg/mL) of Exemplary Compounds in presence of fixed β-lactams: P. aerug. 2775 VIM-2 [3]	MIC (μg/mL) of Exemplary Compounds in presence of fixed β-lactams: K. p. A-1797 KPC-2 VIM-4 [4]	MIC (μg/mL) of Exemplary Compounds in presence of fixed β-lactams: E. coli ESBL4 CTX-M-15 [5]	IC50 (VIM-2) [nM]	MIC (μg/mL) of Exemplary Compounds in presence of fixed β-lactams: E. cl. 144200 p99 AmpC [6]
NCCOCc1cn(CC(=O)N[C@H]2Cc3cccc(C(=O)O)c3OB2O)nn1 [Example 34, (R)-3-(2-(4-((2-aminoethoxy)methyl)-1H-1,2,3-triazol-1-yl)acetamido)-2-hydroxy-3,4-dihydro-2H-benzo[e][1,2]oxaborinine-8-carboxylic acid]	B (B represents an MIC between 1 and 16 μg/mL inclusive)	1000 to 10000	< 100	< 100	< 100	B (B represents an MIC between 1 and 16 μg/mL inclusive)	C (C represents an MIC of <1 μg/mL)	B (B represents an MIC between 1 and 16 μg/mL inclusive)	C (C represents an MIC of <1 μg/mL)	100 to 1000	C (C represents an MIC of <1 μg/mL)
NC(=O)c1ncn(CC(=O)N[C@H]2Cc3cccc(C(=O)O)c3OB2O)n1 [Example 35, (R)-3-(2-(3-carbamoyl-1H-1,2,4-triazol-1-yl)acetamido)-2-hydroxy-3,4-dihydro-2H-benzo[e][1,2]oxaborinine-8-carboxylic acid]	B (B represents an MIC between 1 and 16 μg/mL inclusive)	1000 to 10000	< 100	< 100	< 100	B (B represents an MIC between 1 and 16 μg/mL inclusive)	B (B represents an MIC between 1 and 16 μg/mL inclusive)	A (A represents an MIC>16 μg/mL)	C (C represents an MIC of <1 μg/mL)	1000 to 10000	C (C represents an MIC of <1 μg/mL)
Nc1n[nH]c2ncc(-c3cn(CC(=O)N[C@H]4Cc5cccc(C(=O)O)c5OB4O)nn3)cc12 [Example 36]	B (B represents an MIC between 1 and 16 μg/mL inclusive)	100 to 1000	< 100	< 100	< 100	B (B represents an MIC between 1 and 16 μg/mL inclusive)	B (B represents an MIC between 1 and 16 μg/mL inclusive)	A (A represents an MIC>16 μg/mL)	C (C represents an MIC of <1 μg/mL)	1000 to 10000	C (C represents an MIC of <1 μg/mL)
NCCNC(=O)c1cn(CC(=O)N[C@H]2Cc3cccc(C(=O)O)c3OB2O)nn1 [Example 37, (R)-3-(2-(4-((2-aminoethyl)carbamoyl)-1H-1,2,3-triazol-1-yl)acetamido)-2-hydroxy-3,4-dihydro-2H-benzo[e][1,2]oxaborinine-8-carboxylic acid]	B (B represents an MIC between 1 and 16 μg/mL inclusive)	1000 to 10000	< 100	< 100	< 100	B (B represents an MIC between 1 and 16 μg/mL inclusive)	C (C represents an MIC of <1 μg/mL)	C (C represents an MIC of <1 μg/mL)	C (C represents an MIC of <1 μg/mL)	< 100	C (C represents an MIC of <1 μg/mL)
